Where two headings read alike, the source gives them in different places.
Legend:
B cells = test: Combination of agents with CDIM binding proteins, cytotoxicity to B cells; format: cell-based
[1] = test system: CDIM antigen on human pro-B cell line NALM-6; test: Binding of CDIM binding proteins to CDIM antigen on NALM-6 cells, flow cytometry (MFI); conditions: 1 hour on ice, non-linear regression curve fit
Experimental: This example describes how the binding properties of the disclosed antibodies were investigated. The antibodies were prepared by affinity chromatography. In FIG. 6A, the human pro-B cell line, NALM-6, which expresses the CDIM antigen on the cell surface was stained with the series of recombinant IgM antibodies. The antibodies were used to determine the dose response beginning at 20 μg/tube diluted stepwise by 2, to a final concentration at 0.039 μg. Cells were stained in a 100 μl volume in 3% FBS/PBS on ice for 1 hour followed by a subsequent staining with DyLight-488 conjugated anti-human IgM (Jackson Immuno), 1 μg/ml for 20 minutes at 4 C.
Analysis of CDIM binding was performed on FACScan flow cytometer using CellQuest analysis software. Results are shown as raw data points with Mean Fluorescence Intensity (MFI) on Y-axis and concentration of primary antibody (μg/100 μl) on X-axis.
The data were re-analyzed using GraphPad analysis program to fit the results using non-linear regression curve fit. EC50 (μg/100 μl) for each antibody was (a) 10.6 for IGM1, (b) 2.2 for IGM23, (c) 2.2 for IGM34, and (d) 1.7 for IGM36.

[2] = test system: human pro-B cell line NALM-6; test: Cytotoxicity resulting from cellular binding, propidium iodine uptake; format: cell-based; conditions: NALM-6 cells, viability after 1 hour of staining
Experimental: This example describes how the cytotoxicity of the CDIM binding proteins was investigated. The human pro-B cell line NALM-6 was stained identically as described in FIG. 6A above. In FIG. 6B, cell killing was evaluated by measuring cell viability after 1 hour of staining. […] Results are shown as raw data with % viability on Y-axis and concentration (μg/100 μl) on X-axis.
Identical results were graphed using GraphPad analysis program and data fit using non-linear regression curve fitting. The EC50 was calculated for each antibody using the same approach described above. EC50 (μg/100 μl) for each antibody was (a) 3.0 for IGM1, (b) 0.6 for IGM 23, (c) 0.6 for IGM34, and (d) 0.3 for IGM36.

[3] = combination with CDIM binding proteins

Molecule	Effect of combination with CDIM binding proteins (B cells; [3])	also measured
Nc1ccn([C@@H]2O[C@H](CO)[C@@H](O)[C@@H]2O)c(=O)n1 [Ara-C (Cytarabine), Cytarabine]	Additive Effect	
COc1cc2c(c(OC)c1OC)-c1ccc(OC)c(=O)cc1[C@@H](NC(C)=O)CC2 [Colchisine]	Synergistic Effect	
COc1cccc2c1C(=O)c1c(O)c3c(c(O)c1C2=O)C[C@@](O)(C(C)=O)C[C@@H]3O[C@H]1C[C@H](N)[C@H](O)[C@H](C)O1 [Daunorubicin]		Effect of combination with CDIM binding proteins (B cells): Additive Effect
COc1cc([C@@H]2c3cc4c(cc3[C@@H](O[C@@H]3O[C@@H]5CO[C@@H](C)O[C@H]5[C@H](O)[C@H]3O)[C@H]3COC(=O)[C@H]23)OCO4)cc(OC)c1O [Etoposide (VP-16), Etoposide]	Additive Effect	
COC(=O)Nc1nc2ccc(C(=O)c3cccs3)cc2[nH]1 [Nocodazole]	Synergistic Effect	
CC(=O)O[C@H]1C(=O)[C@@]2(C)[C@H]([C@H](OC(=O)c3ccccc3)[C@]3(O)C[C@H](OC(=O)[C@H](O)[C@@H](NC(=O)c4ccccc4)c4ccccc4)C(C)=C1C3(C)C)[C@]1(OC(C)=O)CO[C@@H]1C[C@@H]2O [Paclitaxel (Taxol), Paclitaxel]	Possible/Undermined	
CC[C@]1(O)C[C@H]2CN(CCc3c([nH]c4ccccc34)[C@@](C(=O)OC)(c3cc4c(cc3OC)N(C=O)[C@H]3[C@@](O)(C(=O)OC)[C@H](OC(C)=O)[C@]5(CC)C=CCN6CC[C@]43[C@@H]65)C2)C1 [Vincristine]	Synergistic Effect	Effect of combination with CDIM binding proteins (B cells; combination with CDIM binding proteins, listed as vincristine): enhanced degree of cytotoxicity to B cells when compared to the additive effect of each single agent alone
IGM1: IgM; heavy chain H1 (SEQ ID NO:28) with lambda light chain (SEQ ID NO:50) (antibody) heavy: QVQLQQWGAGLLKPSETLSLTCAVYGGSFSGYYWSWIRQPPGKGLEWIGEINHSGSTNYNPSLKSRVTISVDTSKNQFSLKLSSVTAADTAVYYCARGRMAWGASVNFDYWGQGTLVTVSSGSASAPTLFPLVSCENSPSDTSSVAVGCLAQDFLPDSITFSWKYKNNSDISSTRGFPSVLRGGKYAATSQVLLPSKDVMQGTDEHVVCKVQHPNGNKEKNVPLPVIAELPPKVSVFVPPRDGFFGNPRKSKLICQATGFSPRQIQVSWLREGKQVGSGVTTDQVQAEAKESGPTTYKVTSTLTIKESDWLSQSMFTCRVDHRGLTFQQNASSMCVPDQDTAIRVFAIPPSFASIFLTKSTKLTCLVTDLTTYDSVTISWTRQNGEAVKTHTNISESHPNATFSAVGEASICEDDWNSGERFTCTVTHTDLPSPLKQTISRPKGVALHRPDVYLLPPAREQLNLRESATITCLVTGFSPADVFVQWMQRGQPLSPEKYVTSAPMPEPQAPGRYFAHSILTVSEEEWNTGETYTCVVAHEALPNRVTERTVDKSTGKPTLYNVSLVMSDTAGTCY light: DIQMTQSPSTLSASVGDRVTITCTGTSSDVGGYNYVSWYQQHPGKAPKLMIYGVSNRFSGSKSGNTASLTISGLAAEDEADYYCSSYTSSSTLVVFGGGTKLTVLGQPKAAPSVTLFPPSSEELQANKATLVCLISDFYPGAVTVAWKADSSPVKAGVETTTPSKQSNNKYAASSYLSLTPEQWKSHRSYSCQVTHEGSTVEKTVAPTECS		EC50 of CDIM binding (MFI) [1]: 10.6 μg/100 μl; EC50 of cytotoxicity (% viability) [2]: 3.0 μg/100 μl
